Patent publication US12441768B2, “Compositions and methods for treating endometriosis” (EndoMet Biosciences, Inc., priority 2018, dated 2025)
Read-outs that look alike come from different tables or passages of the source. Where a SMILES comes first, the peptide text is derived from it.

How the values were obtained:
[1] = target: Wnt-responsive promoter (TCF/LEF); experiment: Wnt-dependent luciferase reporter assay; format: cell-based, murine
In short: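 EC50 (uM) derived from inhibition of luminescence in Wnt3a-stimulated murine 3T3 cells expressing luciferase under a TCF/LEF promoter, with peptides added across a concentration range and vehicle as control.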

in vitro = settings: % Viability non-Wnt responsive cells
[2] = % Viability non-Wnt responsive cells
β-catenin = target: T1, β-catenin (Homo sapiens, UniProt P35222); experiment: KD50 measurement using competitive fluorescence polarization (FP) with labelled TCF4; format: binding; settings: fluorescence polarization, β-catenin; for Kd: read-out: β-Cat FP KD
T1 sequence (P35222 1-781): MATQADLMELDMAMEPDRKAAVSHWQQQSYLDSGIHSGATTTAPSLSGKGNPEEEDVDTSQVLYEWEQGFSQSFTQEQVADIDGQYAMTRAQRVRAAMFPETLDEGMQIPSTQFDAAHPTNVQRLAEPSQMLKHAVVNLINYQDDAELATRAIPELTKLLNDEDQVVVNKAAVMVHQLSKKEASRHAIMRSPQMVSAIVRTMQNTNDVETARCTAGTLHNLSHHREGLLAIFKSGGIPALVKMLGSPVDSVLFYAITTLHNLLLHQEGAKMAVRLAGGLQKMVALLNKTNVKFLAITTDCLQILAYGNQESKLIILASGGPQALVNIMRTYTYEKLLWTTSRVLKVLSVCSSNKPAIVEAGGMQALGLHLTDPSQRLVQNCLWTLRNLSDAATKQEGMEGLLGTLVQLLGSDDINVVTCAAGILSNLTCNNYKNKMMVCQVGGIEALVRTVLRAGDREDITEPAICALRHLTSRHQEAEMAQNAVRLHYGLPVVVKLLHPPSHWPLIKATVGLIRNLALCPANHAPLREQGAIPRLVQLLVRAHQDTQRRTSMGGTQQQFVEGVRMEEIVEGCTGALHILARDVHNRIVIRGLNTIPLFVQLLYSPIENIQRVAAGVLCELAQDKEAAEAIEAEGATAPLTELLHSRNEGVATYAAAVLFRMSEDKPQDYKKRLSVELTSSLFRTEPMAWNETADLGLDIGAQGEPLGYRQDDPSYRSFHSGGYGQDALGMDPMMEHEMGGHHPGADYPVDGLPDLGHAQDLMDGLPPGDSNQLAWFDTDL
In short: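 Each compound competes against labelled TCF4 (5 nM) for 100 nM β-catenin at room temperature, tested over 10 nM to 30 uM. Signal: polarization at 470/520 nm excitation/emission. Three repeat experiments were performed.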

| SMILES | EC50 [1] [µM] | Kd (β-catenin) [µM] | β-Cat FP Hill slope (β-catenin) | viability (in vitro) [%] | viability [2] [%] |
| --- | --- | --- | --- | --- | --- |
| CC[C@H](C)[C@@H]1NC(=O)[C@H](CC(C)C)NC(=O)[C@H](Cc2ccc(O)cc2)NC(=O)[C@H](Cc2c[nH]c3ccccc23)NC(=O)[C@H](CCSC)NC(=O)[C@H](CCCNC(=N)N)NC(=O)[C@H](CO)NC(=O)[C@H](CCSC)NC(=O)[C@@H](N)CCCCNC(=O)CNC(=O)[C@H](Cc2c[nH]c3ccccc23)NC(=O)[C@H](Cc2ccccc2)NC(=O)[C@H](CO)NC1=O [compound 27] (HELM PEPTIDE1{K.M.S.R.M.W.Y.L.I.S.F.W.G}$PEPTIDE1,PEPTIDE1,1:R3-13:R2$$$V2.0; bridges inferred) | > 30 | – | – | 96 | – |
| CC[C@H](C)[C@@H]1NC(=O)[C@H](CC(C)C)NC(=O)[C@H](CC(C)C)NC(=O)[C@H](Cc2c[nH]c3ccccc23)NC(=O)[C@H](CCSC)NC(=O)[C@H](CCCNC(=N)N)NC(=O)[C@H](CO)NC(=O)[C@H](CCSC)NC(=O)[C@@H](N)CCCCNC(=O)CNC(=O)[C@H](Cc2c[nH]c3ccccc23)NC(=O)[C@H](Cc2ccccc2)NC(=O)[C@H](CO)NC1=O [compound 25] (HELM PEPTIDE1{K.M.S.R.M.W.L.L.I.S.F.W.G}$PEPTIDE1,PEPTIDE1,1:R3-13:R2$$$V2.0; bridges inferred) | 7.5 to 15 | – | – | 97 | – |
| CC[C@H](C)[C@H](NC(=O)[C@H](CC(C)C)NC(=O)[C@H](Cc1ccccc1)NC(=O)[C@H](Cc1c[nH]c2ccccc12)NC(=O)[C@@H](N)CCSC)C(=O)N[C@@H](CCC(N)=O)C(=O)N[C@@H](Cc1ccccc1)C(=O)N[C@@H](Cc1ccc(O)cc1)C(=O)NCC(=O)O [compound 149] (H-MWFLIQFYG-OH) | 7.5 to 15 | 0.4 to 1 | 0.75 | – | 104 |
| CC[C@H](C)[C@H](NC(=O)[C@H](CC(C)C)NC(=O)[C@H](Cc1ccccc1)NC(=O)[C@H](Cc1c[nH]c2ccccc12)NC(=O)[C@H](CCSC)NC(=O)[C@H](CCCNC(=N)N)NC(=O)[C@H](CO)NC(=O)[C@@H](N)Cc1ccccc1)C(=O)N[C@@H](CO)C(=O)N[C@@H](Cc1ccccc1)C(=O)N[C@@H](Cc1c[nH]c2ccccc12)C(N)=O [compound 81] (H-FSRMWFLISFW-NH2) | > 30 | > 30 | – | – | 90.7 |
| CC[C@H](C)[C@H](NC(=O)[C@H](CC(C)C)NC(=O)[C@H](Cc1ccccc1)NC(=O)[C@H](Cc1c[nH]c2ccccc12)NC(=O)[C@@H](N)CCSC)C(=O)N[C@@H](CSC)C(=O)N[C@@H](Cc1ccccc1)C(=O)N[C@@H](Cc1c[nH]c2ccccc12)C(=O)NCC(=O)O [compound 214] (H-MWFLIC(Me)FWG-OH) | < 7.5 | 0.4 to 1 | 0.7 | – | 102 |
| CC[C@H](C)[C@H](NC(=O)[C@H](CC(C)C)NC(=O)[C@H](Cc1ccccc1)NC(=O)[C@H](Cc1c[nH]c2ccccc12)NC(=O)[C@H](Cc1c[nH]cn1)NC(=O)[C@H](CCCNC(=N)N)NC(=O)[C@H](CO)NC(=O)[C@@H](N)CCCCN)C(=O)N[C@@H](CO)C(=O)N[C@@H](Cc1ccccc1)C(=O)N[C@@H](Cc1c[nH]c2ccccc12)C(N)=O [compound 94] (H-KSRHWFLISFW-NH2) | > 30 | > 30 | – | – | 118 |
| CC[C@H](C)[C@H](NC(=O)[C@H](CC(C)C)NC(=O)[C@H](CC(C)C)NC(=O)[C@H](Cc1c[nH]c2ccccc12)NC(=O)[C@H](CCSC)NC(=O)[C@H](CCCNC(=N)N)NC(=O)[C@H](CO)NC(=O)[C@@H](N)CCSC)C(=O)N[C@@H](CO)C(=O)N[C@@H](Cc1ccccc1)C(=O)N[C@@H](Cc1c[nH]c2ccccc12)C(=O)NCC(=O)O [compound 60] (H-MSRMWLLISFWG-OH) | 7.5 to 15 | > 30 | – | – | 101 |

More lines, main results first:

| EC50 [1] [µM] | Kd (β-catenin) [µM] | β-Cat FP Hill slope (β-catenin) | SMILES | viability (in vitro) [%] | viability [2] [%] |
| --- | --- | --- | --- | --- | --- |
| 22.5 to 30 | – | – | CC[C@H](C)[C@@H]1NC(=O)[C@H](CC(C)C)NC(=O)[C@H](Cc2ccccc2)NC(=O)[C@H](Cc2c[nH]c3ccccc23)NC(=O)[C@H](CCSC)NC(=O)[C@H](CCCNC(=N)N)NC(=O)[C@H](CO)NC(=O)[C@H](CCSC)NC(=O)[C@@H](N)CCCCNC(=O)CNC(=O)[C@H](Cc2c[nH]c3ccccc23)NC(=O)[C@H](CC(C)C)NC(=O)[C@H](CO)NC1=O [compound 28] (HELM PEPTIDE1{K.M.S.R.M.W.F.L.I.S.L.W.G}$PEPTIDE1,PEPTIDE1,1:R3-13:R2$$$V2.0; bridges inferred) | 91 | – |
| 7.5 to 15 | – | – | CC[C@H](C)[C@@H]1NC(=O)[C@H](CC(C)C)NC(=O)[C@H](Cc2ccccc2)NC(=O)[C@H](Cc2c[nH]c3ccccc23)NC(=O)[C@H](CCSC)NC(=O)[C@@H](N)CCCCNC(=O)CNC(=O)[C@H](Cc2c[nH]c3ccccc23)NC(=O)[C@H](Cc2ccccc2)NC(=O)[C@H](CO)NC1=O [compound 26] (HELM PEPTIDE1{K.M.W.F.L.I.S.F.W.G}$PEPTIDE1,PEPTIDE1,1:R3-10:R2$$$V2.0; bridges inferred) | 88 | – |
| < 7.5 | > 30 | – | CC[C@H](C)[C@@H]1NC(=O)[C@H](CC(C)C)NC(=O)[C@H]([C@@H](C)CC)NC(=O)[C@H](Cc2c[nH]c3ccccc23)NC(=O)[C@@H](N)CCCCNC(=O)C[C@@H](C(=O)O)NC(=O)[C@H](Cc2c[nH]c3ccccc23)NC(=O)[C@H](Cc2ccccc2)NC(=O)[C@H](CS)NC1=O [compound 120] (HELM PEPTIDE1{K.W.I.L.I.C.F.W.D}$PEPTIDE1,PEPTIDE1,1:R3-9:R3$$$V2.0) | – | 123 |
| > 30 | > 30 | – | CC[C@H](C)[C@H](NC(=O)[C@H](CC(C)C)NC(=O)[C@@H](NC(=O)[C@H](Cc1c[nH]c2ccccc12)NC(=O)[C@@H](N)CCSC)[C@@H](C)CC)C(=O)N[C@@H](CO)C(=O)N[C@@H](Cc1ccccc1)C(=O)N[C@@H](Cc1c[nH]c2ccccc12)C(=O)NCC(=O)O [compound 155] (H-MWILISFWG-OH) | – | 97 |
| 7.5 to 15 | > 30 | – | CC[C@H](C)[C@H](NC(=O)[C@H](CC(C)C)NC(=O)[C@H](Cc1ccccc1)NC(=O)[C@H](Cc1c[nH]c2ccccc12)NC(=O)[C@@H](N)CCSC)C(=O)N[C@@H](CO)C(=O)N[C@@H](Cc1ccccc1)C(=O)N[C@@H](Cc1c[nH]c2ccccc12)C(=O)N[C@@H](C)C(=O)O [compound 162] (H-MWFLISFWA-OH) | – | 104 |
| 7.5 to 15 | 10 to 30 | 0.7 | CC[C@H](C)[C@@H]1NC(=O)[C@H](CC(C)C)NC(=O)[C@H](Cc2ccccc2)NC(=O)[C@H](Cc2c[nH]c3ccccc23)NC(=O)[C@@H](NC(C)=O)CC(=O)NCCCC[C@@H](C(=O)NCC(=O)O)NC(=O)[C@H](Cc2c[nH]c3ccccc23)NC(=O)[C@H](Cc2ccccc2)NC(=O)[C@H](CS)NC1=O [compound 175] (HELM PEPTIDE1{[ac].D.W.F.L.I.C.F.W.K.G}$PEPTIDE1,PEPTIDE1,2:R3-10:R3$$$V2.0) | – | 100 |
| 7.5 to 15 | 0.4 to 1 | 0.7 | CC[C@H](C)[C@H](NC(=O)[C@H](CC(C)C)NC(=O)[C@H](Cc1ccccc1)NC(=O)[C@H](Cc1c[nH]c2ccccc12)NC(=O)[C@@H](N)CCSC)C(=O)N[C@@H](CO)C(=O)N[C@@H](Cc1ccccc1)C(=O)N[C@@H](Cc1c[nH]c2ccccc12)C(=O)NCC(N)=O [compound 108] (H-MWFLISFWG-NH2) | – | 102 |
